Structures can show the parent of a compound that is named as a salt. Where two headings read alike, the source gives them in different places.
Assays:
[1] = light breakfast 350 kcal/13 g fat vs standard breakfast 800 kcal/35 g fat; cited from earlier work
[2] = Example 1: phase I crossover food-effect study, single-dose pharmacokinetics of nelfinavir 250 mg tablets (total kilocalories and fat); type: in vivo, human (normal healthy volunteers); conditions: for half-life / AUC / Cmax / Tmax / AUC(0-t) / AUC(0-inf): human, plasma, 1250 mg; for AUC: read-out: AUC12; for AUC(0-t): read-out: AUC(0-tlqc), least-squares mean; for AUC(0-inf): read-out: AUC(0-∞) (AUCinf), least-squares mean
Procedure: A phase I, randomized, open-label crossover study to evaluate the impact of total kilocalories and fat content on single-dose pharmacokinetic parameters of the nelfinavir 250 mg tablet formulation in normal healthy volunteers was performed. Healthy volunteers entered the study and received the following treatment in random order at least 1 week apart: 1) 5×250 mg nelfinavir tablets, fasted 2) 5×250 mg nelfinavir tablets (breakfast meal 1, 125 Kcal/20% fat=low cal/low fat) 3) 5×250 mg nelfinavir tablets (breakfast meal 2, 500 Kcal/20% fat=medium cal/low fat) 4) 5×250 mg nelfinavir tablets (breakfast meal 3, 1000 Kcal/50% fat=high cal/high fat). Plasma concentrations of nelfinavir and its active hydroxy-t-butylamide metabolite (M8) were measured by validated high performance liquid chromatography (HPLC) methods. Pharmacokinetic parameters were determined from plasma concentration-time data using standard methods. Nelfinavir was administered as five 250-mg tablets with 240 mL of water. All subjects received a standardized snack the evening they were admitted to the in-patient facility. For the fasting evaluation, subjects were required to complete an overnight fast of at least 10 hours prior to dosing in the morning. For the fed pharmacokinetic evaluations, subjects were required to complete an overnight fast of at least 10 hours, prior to receiving the protocol-specific standardized breakfast meal (that is, Meal 1, Meal 2, or Meal 3). Subjects were given 30 minutes to complete their standardized breakfast meal. Dosing was performed in the morning, immediately following the subject's completion of the standardized breakfast meal and after the subject's pre-dose pharmacokinetic specimen had been collected. Subjects could not ingest water 1 hour prior to or 1 hour after dosing. A standardized lunch was given at least 4 hours after the morning dose and a standardized dinner was given at least 10 hours after the morning dose. For pharmacokinetic sampling, blood samples, 5 mL each, were collected into heparinized vacuum tubes (green top tubes) via an indwelling catheter or direct venipuncture. The actual time of each collection was recorded on the source document. The timing of each sample collection was as follows: predose and at 0.5, 1, 2, 3, 4, 6, 8, and 12 hours postdose on Days 1, 8,15, and 22. Pharmacokinetic parameter values were calculated using WinNonlin Pro Version 2.1. Individual nelfinavir plasma concentrations were used to predict steady-state plasma concentrations during BID administration with meals of various Kcal content. WinNonlin Pro Version 3.2 noncompartmental superposition was used for this simulation. Predicted steady-state Cmax and Cmin values were compared.

[3] = cited from earlier work
[4] = nelfinavir and nelfinavir plus M8; full breakfast 610 kcal vs light breakfast 271 kcal; once-daily with low-dose ritonavir; cited from earlier work
[5] = single dose; cited from earlier work
[6] = po, nelfinavir, 1250 mg single oral dose with high calorie/high fat meal (1000 Kcal/50% fat)
[7] = po, nelfinavir, 1250 mg single oral dose with low calorie/low fat meal (125 Kcal/20% fat)
[8] = po, nelfinavir, 1250 mg single oral dose with moderate calorie/low fat meal (500 Kcal/20% fat)
[9] = po, nelfinavir, 1250 mg single oral dose, fasting (reference)
[10] = nelfinavir, 125 kcal/20% fat relative to fasting
[11] = nelfinavir, 500 kcal/20% fat relative to fasting
[12] = nelfinavir, 1000 kcal/50% fat relative to fasting
[13] = nelfinavir, high calorie/high fat meal (1000 Kcal/50% fat) vs fasting
[14] = nelfinavir, low calorie/low fat meal (125 Kcal/20% fat) vs fasting
[15] = nelfinavir, moderate calorie/low fat meal (500 Kcal/20% fat) vs fasting

Cc1c(O)cccc1C(=O)N[C@@H](CSc1ccccc1)[C@H](O)CN1C[C@H]2CCCC[C@H]2C[C@H]1C(=O)NC(C)(C)C (relative stereo) [nelfinavir, [3S-(3R*, 4aR*, 8aR*, 2′S*, 3′S*)]-2-[2′ hydroxy-3′-phenylthiomethyl-4′-aza-5′-oxo-5′-(2″-methyl-3″-hydroxy-phenyl)pentyl]-decahydroiso-quinoline-3-N-t-butylcarboxamide methanesulfonic acid salt]
AUC0-12h less with light breakfast than with standard breakfast [1]: 13% | effect of the two breakfasts on C1-hour post dose, Cmax and C12-hours [1]: No significant effects | half-life ([2]; oral, nelfinavir, across fasting and the three meals, read-out: half-life (t½), range of mean values): 3.6 to 5.6 h | AUC ([2]; oral, nelfinavir, food intake 125 kcal/20% fat): 20000 ng·h/mL | Cmax ([2]; oral, nelfinavir, food intake 125 kcal/20% fat, read-out: Cmax (Table 5)): 3160 ng/mL | AUC ([2]; oral, nelfinavir, food intake 500 kcal/20% fat): 25500 ng·h/mL | Cmax ([2]; oral, nelfinavir, food intake 500 kcal/20% fat, read-out: Cmax (Table 5)): 3670 ng/mL | AUC ([2]; oral, nelfinavir, food intake 1000 kcal/50% fat): 38900 ng·h/mL | Cmax ([2]; oral, nelfinavir, food intake 1000 kcal/50% fat, read-out: Cmax (Table 5)): 5200 ng/mL | Tmax ([2]; oral, nelfinavir, high calorie meal, read-out: mean tmax longer relative to fasting subjects): ~2 h | Tmax ([2]; oral, nelfinavir, low calorie meal, read-out: mean tmax longer relative to fasting subjects): ~1 h | Tmax ([2]; oral, nelfinavir, moderate calorie meal, read-out: mean tmax longer relative to fasting subjects): ~1.5 h | Cmax ([2]; po, nelfinavir in plasma, 1250 mg single oral dose with high calorie/high fat meal (1000 Kcal/50% fat), read-out: Cmax, least-squares mean): 5200 ng/mL | Cmax ([2]; po, nelfinavir in plasma, 1250 mg single oral dose with low calorie/low fat meal (125 Kcal/20% fat), read-out: Cmax, least-squares mean): 3160 ng/mL | Cmax ([2]; po, nelfinavir in plasma, 1250 mg single oral dose with moderate calorie/low fat meal (500 Kcal/20% fat), read-out: Cmax, least-squares mean): 3670 ng/mL | Cmax ([2]; po, nelfinavir in plasma, 1250 mg single oral dose, fasting (reference), read-out: Cmax, least-squares mean): 1570 ng/mL | AUC(0-t) [2, 6]: 38900 ng·h/mL | AUC(0-inf) [2, 6]: 55300 ng·h/mL | half-life ([2]; po, nelfinavir, 1250 mg single oral dose with high calorie/high fat meal (1000 Kcal/50% fat), read-out: t1/2 (terminal half-life), least-squares mean (converted)): 5.63 h | Tmax ([2]; po, nelfinavir, 1250 mg single oral dose with high calorie/high fat meal (1000 Kcal/50% fat), read-out: tmax, least-squares mean): 3.98 h | AUC(0-t) [2, 7]: 20000 ng·h/mL | AUC(0-inf) [2, 7]: 23100 ng·h/mL | half-life ([2]; po, nelfinavir, 1250 mg single oral dose with low calorie/low fat meal (125 Kcal/20% fat), read-out: t1/2 (terminal half-life), least-squares mean (converted)): 3.59 h | Tmax ([2]; po, nelfinavir, 1250 mg single oral dose with low calorie/low fat meal (125 Kcal/20% fat), read-out: tmax, least-squares mean): 3.02 h | AUC(0-t) [2, 8]: 25500 ng·h/mL | AUC(0-inf) [2, 8]: 33400 ng·h/mL | half-life ([2]; po, nelfinavir, 1250 mg single oral dose with moderate calorie/low fat meal (500 Kcal/20% fat), read-out: t1/2 (terminal half-life), least-squares mean (converted)): 4.77 h | Tmax ([2]; po, nelfinavir, 1250 mg single oral dose with moderate calorie/low fat meal (500 Kcal/20% fat), read-out: tmax, least-squares mean): 3.87 h | AUC(0-t) [2, 9]: 9040 ng·h/mL | AUC(0-inf) [2, 9]: 10600 ng·h/mL | half-life ([2]; po, nelfinavir, 1250 mg single oral dose, fasting (reference), read-out: t1/2 (terminal half-life), least-squares mean (converted)): 4.1 h | Tmax ([2]; po, nelfinavir, 1250 mg single oral dose, fasting (reference), read-out: tmax, least-squares mean): 2.18 h | AUC ([2]; po, nelfinavir, 1250 mg single oral dose, fasting): 9040 ng·h/mL | Cmax ([2]; po, nelfinavir, 1250 mg single oral dose, fasting, read-out: Cmax (Table 5)): 1570 ng/mL | AUC(0-∞) (AUCinf), least-squares mean ([2]; nelfinavir, 1250 mg single oral dose with high calorie/high fat meal (1000 Kcal/50% fat)): 55300 ng·h/mL | AUC(0-∞) (AUCinf), least-squares mean ([2]; nelfinavir, 1250 mg single oral dose with low calorie/low fat meal (125 Kcal/20% fat)): 23100 ng·h/mL | AUC(0-∞) (AUCinf), least-squares mean ([2]; nelfinavir, 1250 mg single oral dose with moderate calorie/low fat meal (500 Kcal/20% fat)): 33400 ng·h/mL | C12 (concentration at 12 hours postdose), mean ([2]; nelfinavir, 1250 mg single oral dose, 125 Kcal/20% fat): 0.65 µg/mL | C12 (concentration at 12 hours postdose), mean ([2]; nelfinavir, 1250 mg single oral dose, 500 Kcal/20% fat): 1.19 µg/mL | C12 (concentration at 12 hours postdose), mean ([2]; nelfinavir, 1250 mg single oral dose, 1000 Kcal/50% fat): 2.07 µg/mL | C12 (concentration at 12 hours postdose), mean ([2]; nelfinavir, 1250 mg single oral dose, fasting): 0.41 µg/mL | AUC12 (×fasting) [2, 10]: 2.2 X | AUCinf (×fasting) [2, 10]: 2.2 X | Cmax (×fasting) [2, 10]: 2.0 X | AUC12 (×fasting) [2, 11]: 2.8 X | AUCinf (×fasting) [2, 11]: 3.1 X | Cmax (×fasting) [2, 11]: 2.3 X | AUC12 (×fasting) [2, 12]: 4.3 X | AUCinf (×fasting) [2, 12]: 5.2 X | Cmax (×fasting) [2, 12]: 3.3 X | C12 values compared with Cmax in fasting subjects ([2]; nelfinavir, dose with the high calorie/high fat meal, FIG. 1): higher than Cmax values in fasting subjects | mean Cmax higher relative to fasting subjects ([2]; nelfinavir, high calorie meal): 3.3 fold | AUC(0-tlqc) ratio (100% × test/reference) [2, 13]: 430% | AUC(0-∞) ratio (100% × test/reference) [2, 13]: 520% | Cmax ratio (100% × test/reference) [2, 13]: 331% | t1/2 ratio (100% × test/reference) [2, 13]: 139% | tmax ratio (100% × test/reference) [2, 13]: 183% | mean Cmax higher relative to fasting subjects ([2]; nelfinavir, low calorie meal): 2 fold | AUC(0-tlqc) ratio (100% × test/reference) [2, 14]: 221% | AUC(0-∞) ratio (100% × test/reference) [2, 14]: 218% | Cmax ratio (100% × test/reference) [2, 14]: 201% | t1/2 ratio (100% × test/reference) [2, 14]: 87.5% | tmax ratio (100% × test/reference) [2, 14]: 139% | bioavailability higher relative to fasting subjects, based on AUC(0-∞) ([2]; nelfinavir, meal 1 (125 Kcal/20% fat)): 2.2 fold | bioavailability higher relative to fasting subjects, based on AUC(0-∞) ([2]; nelfinavir, meal 2 (500 Kcal/20% fat)): 3.1 fold | bioavailability higher relative to fasting subjects, based on AUC(0-∞) ([2]; nelfinavir, meal 3 (1000 Kcal/50% fat)): 5.2 fold | AUC increase over fasting state ([2]; nelfinavir, meals containing 500-1000 kcal and 20-50% fat): 3-5 fold | mean Cmax higher relative to fasting subjects ([2]; nelfinavir, moderate calorie meal): 2.3 fold | AUC(0-tlqc) ratio (100% × test/reference) [2, 15]: 282% | AUC(0-∞) ratio (100% × test/reference) [2, 15]: 314% | Cmax ratio (100% × test/reference) [2, 15]: 234% | t1/2 ratio (100% × test/reference) [2, 15]: 116% | tmax ratio (100% × test/reference) [2, 15]: 178% | oral bioavailability ([3]; animals fasted overnight): 29% | oral bioavailability ([3]; fed rats, dogs and monkeys (meal 30 minutes before drug administration)): 43% | effect of meal consumption on AUC24h, corr and Cmin [4]: significant effect | AUC under fasting conditions as % of AUC with food [5]: 27-50%

From US20040186066A1, “Method of treatment with nelfinavir” (AGOURON PHARMACEUTICALS, INC., priority 2003, published 2004)
